Source: patent US4486584A, “Demethylmacrocin compounds and derivatives thereof” (Eli Lilly and Company, priority 1982, dated 1984)
≈ marks a conversion by molar mass, not a printed value.

How the values were obtained:
[1] = system: Streptomyces fradiae ATCC 31664; assay: Antibiotic sensitivity, sensitivity discs on seeded agar plates; assay type: cell-based; details: discs: chloramphenicol, cephaloridine, tetracycline, vancomycin 30 μg, erythromycin 15 μg, lincomycin 2 μg, polymyxin B 300 units, streptomycin 10 μg; note: key: -: resistance (no zones of inhibition); +: sensitivity (zones of inhibition); trace of sensitivity
Source text: (§1) ^a Determined by using sensitivity discs padded onto seededagar

[2] = system: Streptomyces fradiae E2724.1; assay: as above; assay type: cell-based; details: discs: chloramphenicol, cephaloridine, tetracycline, vancomycin 30 μg, erythromycin 15 μg, lincomycin 2 μg, polymyxin B 300 units, streptomycin 10 μg; note: key: -: resistance (no zones of inhibition); +: sensitivity (zones of inhibition); trace of sensitivity
Source text: as §1

[3] = Electrometric titration (pKa); assay type: physicochemical; details: 66% aqueous dimethylformamide
Source text: Electrometric titration of DOMM in 66% aqueous dimethylformamide indicates the presence of a titratable group with a pKa value of about 7.14.

Solubility = assay type: physicochemical
Mycoplasma gallisepticum = assay: Standard agar-dilution MIC assay; assay type: cell-based; details: Mycoplasmoides gallisepticum, DOMM free base
Source text: (§2) Table 8 summarizes the minimal inhibitory concentrations (MIC), as measured by standard agar-dilution assays, at which DOMM (free base) inhibits certain bacteria.

Mycoplasma hyopneumoniae = assay: Standard agar-dilution MIC assay; assay type: cell-based; details: Mesomycoplasma hyopneumoniae, DOMM free base
Source text: as §2

Mycoplasma hyorhinis = assay: Standard agar-dilution MIC assay; assay type: cell-based; details: DOMM free base
Source text: as §2

Pasteurella hemolytica = assay: Standard agar-dilution MIC assay; assay type: cell-based; details: DOMM free base
Source text: as §2

Pasteurella multocida = assay: Standard agar-dilution MIC assay; assay type: cell-based; details: DOMM free base
Source text: as §2

[4] = system: Streptococcus pneumoniae Park I; assay: Standard agar-dilution MIC assay; assay type: cell-based; details: DOMM free base
Source text: as §2

[5] = system: Streptococcus pyogenes C203; assay: Standard agar-dilution MIC assay; assay type: cell-based; details: DOMM free base
Source text: as §2

[6] = system: Streptococcus sp. (Group D) 282; assay: Standard agar-dilution MIC assay; assay type: cell-based; details: DOMM free base
Source text: as §2

[7] = system: Staphylococcus aureus 3055; assay: Experimental infection in mice, ED50; assay type: in vivo; details: sc, subcutaneous, two doses, bacterial challenge (X LD50) = 139, read-out: Subcutaneous ED50 (effective dose to protect 50% of the test animals)
Method: (§3) The DOMM compounds have shown in vivo antimicrobial activity against experimental bacterial infections. When two doses of test compound were administered to mice in experimental infections, the activity observed was measured as an ED50 value [effective dose in mg/kg to protect 50% of the test animals: see Warren Wick, et al., J. Bacteriol. 81, 233-235 (1961)].

[8] = system: Streptococcus pneumoniae Park I; assay: Experimental infection in mice, ED50; assay type: in vivo; details: sc, subcutaneous, two doses, bacterial challenge (X LD50) = 41.2, read-out: Subcutaneous ED50 (effective dose to protect 50% of the test animals)
Method: as §3

[9] = system: Streptococcus pyogenes C203; assay: Experimental infection in mice, ED50; assay type: in vivo; details: sc, subcutaneous, two doses, bacterial challenge (X LD50) = 133, read-out: Subcutaneous ED50 (effective dose to protect 50% of the test animals)
Method: as §3

[10] = system: pathogenic bacteria, especially gram-positive bacteria and Mycoplasma species; assay: Inhibition of growth of pathogenic organisms (general statement); assay type: cell-based
Source text: as §2

In the case of CN(C)C1C(=O)C(C(N)=O)=C(O)C2(O)C(=O)C3=C(O)c4c(O)cccc4C(C)(O)C3CC12 (centres unmarked) [Tetracycline], the Antibiotic sensitivity [1] is reported as “+” and the Antibiotic sensitivity [2] is reported as “+”.
With CCC1OC(=O)CC(O)C(C)C(OC2OC(C)C(OC3CC(C)(O)C(O)C(C)O3)C(N(C)C)C2O)C(CC=O)CC(C)C(=O)C=CC(C)=CC1COC1OC(C)C(O)C(O)C1O (centres unmarked) [DOMM, 2'"-O-demethylmacrocin] the pKa value [3] was “about 7.14”, the “solubility in most polar organic solvents” value (Solubility; acetone, methanol, ethanol, chloroform, dimethylformamide and dimethyl sulfoxide) was “soluble” and the solubility in water (Solubility; water) was “soluble”. For the same compound, the MIC (Mycoplasma gallisepticum) was 0.78 µg/mL (≈ 0.878 µM), the MIC (Mycoplasma hyopneumoniae) was 0.78 µg/mL (≈ 0.878 µM) and the MIC (Mycoplasma hyorhinis) was 3.12 µg/mL (≈ 3.51 µM). The MIC (Pasteurella hemolytica) was 50 µg/mL (≈ 56.3 µM), the MIC (Pasteurella multocida) was 12.5 µg/mL (≈ 14.1 µM) and the MIC [4] was 0.25 µg/mL (≈ 0.282 µM). For the same compound, the MIC [5] was 0.25 µg/mL (≈ 0.282 µM), the MIC [6] was 4 µg/mL (≈ 4.5 µM) and the ED50 [7] was 3.8 mg/kg. The ED50 [8] was 37.5 mg/kg, the ED50 [9] was 1.1 mg/kg and the “growth inhibition / antibacterial activity (in words)” value [10] was “especially active against grampositive microorganisms and Mycoplasma species”.
With O=C(N[C@H](CO)[C@H](O)c1ccc([N+](=O)[O-])cc1)C(Cl)Cl [Chloramphenicol] the Antibiotic sensitivity [1] was “+” and the Antibiotic sensitivity [2] was “+”.
In the case of CCC1OC(=O)CC(O)C(C)C(OC2OC(C)C(OC3CC(C)(O)C(O)C(C)O3)C(N(C)C)C2O)C(CCO)CC(C)C(=O)C=CC(C)=CC1COC1OC(C)C(O)C(O)C1O (centres unmarked) [dihydro-DOMM, 20-dihydro-2'"-O-demethylmacrocin], the “growth inhibition / antibacterial activity (in words)” value [10] is reported as “especially active against grampositive microorganisms and Mycoplasma species”.
In the case of O=C(Cc1cccs1)N[C@@H]1C(=O)N2C(C(=O)[O-])=C(C[n+]3ccccc3)CS[C@H]12 [Cephaloridine], the Antibiotic sensitivity [1] is reported as “+” and the Antibiotic sensitivity [2] is reported as “+”.
In the case of CCC[C@@H]1C[C@@H](C(=O)N[C@@H]([C@H]2O[C@H](SC)[C@H](O)[C@@H](O)[C@H]2O)[C@@H](C)O)N(C)C1 [Lincomycin], the Antibiotic sensitivity [1] is reported as “-” and the Antibiotic sensitivity [2] is reported as “-”.
For [H]/N=C(/N)N[C@H]1[C@H](O)[C@@H](O)[C@H](O[C@@H]2O[C@@H](C)[C@](O)(C=O)[C@H]2O[C@@H]2O[C@@H](CO)[C@H](O)[C@@H](O)[C@@H]2NC)[C@@H](N/C(N)=N\[H])[C@@H]1O [Streptomycin], the Antibiotic sensitivity [1] was “+” and the Antibiotic sensitivity [2] was “+”.
With Polymyxin B the Antibiotic sensitivity [1] was “+”.
For CN[C@H](CC(C)C)C(=O)N[C@H]1C(=O)N[C@@H](CC(N)=O)C(=O)N[C@H]2C(=O)N[C@H]3C(=O)N[C@H](C(=O)N[C@H](C(=O)O)c4cc(O)cc(O)c4-c4cc3ccc4O)[C@H](O)c3ccc(c(Cl)c3)Oc3cc2cc(c3O[C@@H]2O[C@H](CO)[C@@H](O)[C@H](O)[C@H]2O[C@H]2C[C@](C)(N)[C@H](O)[C@H](C)O2)Oc2ccc(cc2Cl)[C@H]1O [Vancomycin], the Antibiotic sensitivity [1] was “+” and the Antibiotic sensitivity [2] was “+”.
